Source: patent publication US11371055B2, “Herbicide resistance genes” (CORTEVA AGRISCIENCE LLC, priority 2005, dated 2022)

Legend:
[1] = test system: AAD-12 (v1) gene T1 transformants (Arabidopsis); experiment: T1 Arabidopsis postemergence herbicide dose response, % visual injury; type: in vivo, Arabidopsis thaliana
Method: Freshly harvested T1 seed [AAD-12 (v1) gene] was allowed to dry for 7 days at room temperature. T1 seed was sown in 26.5×51-cm germination trays (T.O. Plastics Inc., Clearwater, Minn.), each receiving a 200 mg aliquots of stratified T, seed (˜10,000 seed) that had previously been suspended in 40 ml of 0.1% agarose solution and stored at 4° C. for 2 days to complete dormancy requirements and ensure synchronous seed germination.
Sunshine Mix LP5 (Sun Gro Horticulture Inc., Bellevue, Wash.) was covered with fine vermiculite and subirrigated with Hoagland's solution until wet, then allowed to gravity drain. Each 40 ml aliquot of stratified seed was sown evenly onto the vermiculite with a pipette and covered with humidity domes (KORD Products, Bramalea. Ontario, Canada) for 4-5 days. Domes were removed 1 day prior to initial transformant selection using glufosinate postemergence spray (selecting for the co-transformed PAT gene).
Seven days after planting (DAP) and again 11 DAP, T1 plants (cotyledon and 2-4-lf stage, respectively) were sprayed with a 0.2% solution of Liberty herbicide (200 g ai/L glufosinate, Bayer Crop Sciences, Kansas City, Mo.) at a spray volume of 10 ml/tray (703 L/ha) using a DeVilbiss compressed air spray tip to deliver an effective rate of 280 g ai/ha glufosinate per application. Survivors (plants actively growing) were identified 4-7 days after the final spraying and transplanted individually into 3-inch pots prepared with potting media (Metro Mix 360). Transplanted plants were covered with humidity domes for 3-4 days and placed in a 22° C. growth chamber as before or moved to directly to the greenhouse. Domes were subsequently removed and plants reared in the greenhouse (22±5° C., 50±30% RH, 14 h light:10 dark, minimum 500 μE/m^2 s^1 natural+supplemental light) at least 1 day prior to testing for the ability of AAD-12 (v1) (plant optimized gene) to provide phenoxy auxin herbicide resistance.
T1 plants were then randomly assigned to various rates of 2,4-D. For Arabidopsis, 50 g ae/ha 2,4-D is an effective dose to distinguish sensitive plants from ones with meaningful levels of resistance. Elevated rates were also applied to determine relative levels of resistance (50, 200, 800, or 3200 g ac/ha). Tables 10 and 11 show comparisons drawn to an aryloxyalkanoate herbicide resistance gene (AAD-1 (v3)) previously described in PCT/US2005/014737.
All auxin herbicide applications were made using the DeVilbiss sprayer as described above to apply 703 L/ha spray volume (0.4 ml solution/3-inch pot) or applied by track sprayer in a 187 L/ha spray volume. 2,4-D used was either technical grade (Sigma, St. Louis, Mo.) dissolved in DMSO and diluted in water (<1% DMSO final concentration) or the commercial dimethylamine salt formulation (456 g ac/L, NuFarm, St Joseph, Mo.). Dichlorprop used was commercial grade formulated as potassium salt of R-dichlorprop (600 g ai/L, AH Marks). As herbicide rates increased beyond 800 g ae/ha, the pH of the spray solution became exceedingly acidic, burning the leaves of young, tender Arabidopsis plants and complicating evaluation of the primary effects of the herbicides. It became standard practice to apply these high rates of herbicides in 200 mM HEPES buffer, pH 7.5.
The first Arabidopsis transformations were conducted using AAD-12 (v1) (plant optimized gene). T1 transformants were first selected from the background of untransformed seed using a glufosinate selection scheme. Over 300,000 T1 seed were screened and 316 glufosinate resistant plants were identified (PAT gene), equating to a transformation/selection frequency of 0.10% which lies in the normal range of selection frequency of constructs where PAT+Liberty are used for selection. T1 plants selected above were subsequently transplanted to individual pots and sprayed with various rates of commercial aryloxyalkanoate herbicides. […]

[2] = molecular target: T1, AAD-12 (v2) (Delftia acidovorans, UniProt P83309); experiment: Colorimetric phenol detection assay of AAD-12 activity; type: biochemical; settings: for activity of AAD-12 (v2) on substrate (absorbance at 510 nm, FIG. 3): 4.4 μg AAD-12 (v2), 0.5 mM substrate, 5 minutes
T1 construct: made in house; host or cells: Pseudomonas fluorescens strain MB324 (construct pDAB739)
Method: Enzyme activity was measured by colorimetric detection of the product phenol using a protocol modified from that of Fukumori and Hausinger (1993) (J. Biol. Chem. 268: 24311-24317) to enable deployment in a 96-well microplate format. The colorimetric assay has been described for use in measuring the activity of dioxygenases cleaving 2,4-D and dichlorprop to release the product 2,4-dichlorophenol. The color yield from several phenols was compared to that of 2,4-dichlorophenol using the detection method previously described to ascertain which phenol products could be readily detected. […] Pyridinols derived from fluroxypyr and triclopyr produced no significant color. The color yield of 2,4-dichlorophenol was linear and proportional to the concentration of phenol in the assay up to ˜500 μM.
Assays were initiated by addition of the aryloxyalkanoate substrate, enzyme or α-ketoglutarate at time zero. After 5 minutes of incubation at 25° C., the reaction was terminated by addition of 30 μl of a 1:1:1 mix of 50 mM Na EDTA; pH 10 buffer (3.09 g boric acid+3.73 g KCl+44 ml 1 N KOH) and 0.2% 4-aminoantipyrine. Then 10 μl 0.8% potassium ferricyanide was added and after 5 or 10 min, the absorbance at 510 nm was recorded in a spectrophotometric microplate reader. Blanks contained all reagents except for enzyme to account for the occasional slight contamination of some of the substrates by small amounts of phenols.
The results are shown in FIG. 3, which illustrates activity of AAD-12 (v2) on 2,4-D and enantiomers of dichlorprop. 4.4 μg AAD-12 (v2) was incubated with 0.5 mM substrate (1 mM for (R,S)-dichlorprop) and the reaction initiated by addition of α-ketoglutarate. After 5 minutes, the reaction was quenched, and the absorbance at 510 nm determined after addition of colorimetric detection reagents. The background value without enzyme was subtracted.

[3] = 50 g ae/ha 2,4-D postemergence, 2 WAT
[4] = 200 g ae/ha 2,4-D postemergence, 2 WAT
[5] = 800 g ae/ha 2,4-D postemergence, 2 WAT
[6] = 3200 g ae/ha 2,4-D postemergence, 2 WAT
[7] = 50 g ae/ha R-dichlorprop postemergence
[8] = 200 g ae/ha R-dichlorprop postemergence
[9] = 800 g ae/ha R-dichlorprop postemergence
[10] = 3200 g ae/ha R-dichlorprop postemergence

T1 sequence (P83309 whole entry, looked up, natural form): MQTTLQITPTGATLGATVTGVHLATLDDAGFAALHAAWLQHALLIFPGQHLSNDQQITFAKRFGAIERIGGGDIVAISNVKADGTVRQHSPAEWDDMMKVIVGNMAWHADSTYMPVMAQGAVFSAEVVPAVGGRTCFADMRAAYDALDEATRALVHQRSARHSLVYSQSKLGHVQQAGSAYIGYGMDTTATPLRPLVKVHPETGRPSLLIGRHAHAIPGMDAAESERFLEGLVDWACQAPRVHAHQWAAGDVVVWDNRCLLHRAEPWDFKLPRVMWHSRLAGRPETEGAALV

Question: `O=C(O)COc1ccc(Cl)cc1Cl` [2,4-D, 2,4-dichlorophenoxyacetic acid] was tested. Which “% Injury 20-40% (number of individuals)” value [1, 3] did it give?
Answer: 0

Question: What about the “% Injury <20% (number of individuals)” value [1, 3] of the same compound?
Answer: 6

Question: And the “% Injury >40% (number of individuals)” value [1, 3]?
Answer: 2

Question: And the “% Injury Ave” value [1, 3]?
Answer: 16%

Question: And the “% Injury 20-40% (number of individuals)” value [1, 4]?
Answer: 1

Question: What about the “% Injury <20% (number of individuals)” value [1, 4] of the same compound?
Answer: 6

Question: And the “% Injury >40% (number of individuals)” value [1, 4]?
Answer: 1

Question: And the “% Injury Ave” value [1, 4]?
Answer: 11%

Question: And the “% Injury 20-40% (number of individuals)” value [1, 5]?
Answer: 2

Question: What about the “% Injury <20% (number of individuals)” value [1, 5] of the same compound?
Answer: 5

Question: And the “% Injury >40% (number of individuals)” value [1, 5]?
Answer: 1

Question: What about the “% Injury Ave” value [1, 5] of the same compound?
Answer: 15%

Question: And the “% Injury 20-40% (number of individuals)” value [1, 6]?
Answer: 0

Question: And the “% Injury <20% (number of individuals)” value [1, 6]?
Answer: 8

Question: And the “% Injury >40% (number of individuals)” value [1, 6]?
Answer: 0

Question: And the “activity of AAD-12 (v2) on substrate (absorbance at 510 nm, FIG. 3)” value [2]?
Answer: equivalent to that on (S)-dichlorprop

Question: And the inhibition at 2000 µM ([2]; read-out: Substrate inhibition at 2 mM)?
Answer: 55%

Question: How did the “% Injury 20-40% (number of individuals)” value [1, 7] turn out when `C[C@@H](Oc1ccc(Cl)cc1Cl)C(=O)O` [(R)-dichlorprop, R-2,4-dichlorophenoxypropionic acid] was run?
Answer: 0

Question: And the “% Injury <20% (number of individuals)” value [1, 7]?
Answer: 0

Question: What about the “% Injury >40% (number of individuals)” value [1, 7] of the same compound?
Answer: 8

Question: What about the “% Injury Ave” value [1, 7] of the same compound?
Answer: 63%

Question: What about the “% Injury 20-40% (number of individuals)” value [1, 8] of the same compound?
Answer: 0

Question: And the “% Injury <20% (number of individuals)” value [1, 8]?
Answer: 0

Question: What about the “% Injury >40% (number of individuals)” value [1, 8] of the same compound?
Answer: 8

Question: What about the “% Injury Ave” value [1, 8] of the same compound?
Answer: 85%

Question: What about the “% Injury 20-40% (number of individuals)” value [1, 9] of the same compound?
Answer: 0

Question: And the “% Injury <20% (number of individuals)” value [1, 9]?
Answer: 0

Question: What about the “% Injury >40% (number of individuals)” value [1, 9] of the same compound?
Answer: 8

Question: What about the “% Injury Ave” value [1, 9] of the same compound?
Answer: 96%

Question: What about the “% Injury 20-40% (number of individuals)” value [1, 10] of the same compound?
Answer: 0

Question: What about the “% Injury <20% (number of individuals)” value [1, 10] of the same compound?
Answer: 0

Question: And the “% Injury >40% (number of individuals)” value [1, 10]?
Answer: 8

Question: And the “% Injury Ave” value [1, 10]?
Answer: 98%

Question: What about the “activity of AAD-12 (v2) on substrate (absorbance at 510 nm, FIG. 3)” value [2] of the same compound?
Answer: minimal activity
